Where “and” joins values, the source holds several entries; their conditions need not be identical. Equal entries are not always repeated.
System: TKCC10 human PDX tumors
Assay: TKCC10 human model, picrosirius red birefringence after three rounds of therapy (Extended Data Fig. 5d)
Type: in vivo, mouse
Conditions: for Quantification of red birefringent (mature) collagen fibres: Extended Data 5D, human PDXs at endpoint after 3 cycles of treatment, individual replicates
Method: Subcutaneous PDX studies were performed by implanting early passage PDX pieces (~4 mm^3) or TKCC10 CCs (1.5 × 10^6 cells per mouse in 100 μl PBS/Matrigel 1:1) into female (PDX) or male (TKCC10) 8-week-old immunocompromised nude Balb/c-Fox1nuAusb mice subcutaneously on the left flank. For the duration of the study, mice were kept in conventional caging with environmental enrichment, access to standard chow, water ad libitum and 12-h light–dark cycle at ambient temperature and humidity. Treatment began when tumors reached 150 mm^3, where each mouse was randomized into a treatment group and administered gemcitabine HCl (100 mg kg^−1 in saline) (Jomar Life Research) or vehicle control (0.9% saline) by i.p. injection twice weekly on day 2 and 4 of the treatment cycle until an ethical end point was reached. These included maximal tumor mass ≥10% of body weight, weight loss ≥20% from maximum body weight or tumor interfering with mobility and affecting access to food and water. Animals with non-tumor-related complications that led to a premature end point were censored. […] Tumor size was monitored every second day by calipers. Tumor volume was calculated using the formula (length × width^2)/2. […]
Extended Data Fig. 5 PXS-5505 in combination with gemcitabine in vivo. a. […] Signal is defined as the enzyme activity in the aorta, while noise is measured in the presence of a high concentration (300 µM) BAPN to abolish any lysyl oxidase family activity. […] FITC-dextran (molecular weight: 10 kDa) signal quantification from KPC tumor end point from each treatment group (vehicle n = 3 biologically independent animals, PXS-5505 n = 5 biologically independent animals, Gem n = 5 biologically independent animals, PXS-5505 + Gem n = 5 biologically independent animals). […] P-values determined by Welchs t-test. […] Quantification of red birefringent (mature) collagen fibers from human PDXs at end point after 3 cycles of treatment, treated as indicated. […] P values determined by Welchs t-test. g. […] Quantification of green birefringent (nascent) collagen fibers from human PDXs at end point, treated as indicated. […]

Structure (SMILES): Nc1ccn([C@@H]2O[C@H](CO)[C@@H](O)C2(F)F)c(=O)n1 [Gem, gemcitabine]
- Quantification of red birefringent (mature) collagen fibres: 806 and 284 and 128 and 654 and 1145 and 167 and 291 and 56 and 399 and 263 and 1177 and 403 and 843 and 2660 and 1208 and 745 and 4462 and 5568 and 5319 and 1528 and 2340 and 4185 and 3205 and 2211 and 5904
- tumor fibrillar collagen content (picrosirius red birefringence) (TKCC10 model, three rounds of therapy): increases fibrillar collagen I content

Structure (SMILES): Cl.Cl.NC/C=C(\F)CS(=O)(=O)c1cccc2cccnc12.O [PXS-5505, (Z)-3-fluoro-4-(quinolin-8-ylsulfonyl)but-2-en-1-amine dihydrochloride monohydrate]
- Quantification of red birefringent (mature) collagen fibres: 965 and 112 and 188 and 2 and 295 and 380 and 3894 and 62 and 792 and 254 and 25 and 1015 and 164 and 72 and 282 and 10 and 83 (2×) and 9 and 15 and 1307 and 917 and 737 and 1467 and 503
